Eight compounds from ChEMBL document CHEMBL5543087 (Eur J Med Chem, 2024) can be followed below.

A short description of data set [1]: Lipophilicity, logP of compound in n-Octanol/water. The class given is physicochemical.
The subject of data set [2] is SK-OV-3. Kind of data set: Cytotoxicity against human SK-OV-3 cells assessed as increase in LDH activity incubated for 24 hrs. The class given is toxicity, cell-based. The following applies: sk-ov-3, 24 h.
Data set [3] relates to BJ. Kind of data set: Cytotoxicity against human BJ cells assessed as increase in LDH activity incubated for 24 hrs. It is filed as toxicity, cell-based.
The nature of data set [4]: Chromatographic hydrophobicity index of compound incubated for 20 mins by reversed-phase HPLC analysis. The class given is ADME.
Data set [5] in a line: Inhibition of porcine gastric mucosa Pepsin using MCA labeled GKPILFFRLK(DNP)-D-R-NH2 as substrate preincubated for 10 mins followed by substrate addition by FRET assay. On the set-up: species or system Sus scrofa.
The target of the next data set is Cathepsin D (Homo sapiens, UniProt P07339). The experiment in a line: Inhibition of human Cathepsin D using MCA labeled GKPILFFRLK(DNP)-D-R-NH2 as substrate preincubated for 10 mins followed by substrate addition by FRET assay.
The test system of data set [6] is BJ. The experiment in a line: Cytotoxicity against human BJ cells assessed as increase in LDH activity at IC50 incubated upto 96 hrs. The class given is toxicity, cell-based.
Data set [7] has as its system SK-OV-3. Kind of data set: Cytotoxicity against human SK-OV-3 cells assessed as change in cell cytoskeleton at 40 uM incubated for 24 hrs by phalloidin fluorescent staining analysis. It is filed as toxicity, cell-based. The following applies: sk-ov-3, 24 h.
Data set [8] relates to SK-OV-3. The experiment in a line: Cytotoxicity against human SK-OV-3 cells assessed as change in nucleus morphology at IC50 incubated for 24 hrs by DAPI fluorescent staining analysis. It is filed as toxicity, cell-based. The following applies: sk-ov-3, 24 h.
Data set [9] deals with SK-OV-3. The experiment in a line: Cytotoxicity against human SK-OV-3 cells assessed as increase in LDH activity at 40 uM incubated upto 96 hrs. It is filed as toxicity, cell-based. As to conditions: sk-ov-3, 96 h.
The test system of data set [10] is SK-OV-3. The experiment in a line: Cytotoxicity against human SK-OV-3 cells assessed as change in fibronectin matrix organization at 40 uM incubated for 24 hrs by phalloidin fluorescent staining analysis. It is filed as toxicity, cell-based. As to conditions: sk-ov-3, 24 h.
Data set [11] concerns SK-OV-3. Kind of data set: Cytotoxicity against human SK-OV-3 cells assessed as diffused F-actin network at IC50 incubated for 24 hrs by phalloidin fluorescent staining analysis. The class given is toxicity, cell-based. The following applies: sk-ov-3, 24 h.
In data set [12] the test system is SK-OV-3. The experiment in a line: Cytotoxicity against human SK-OV-3 cells assessed as change in fibronectin matrix organization at IC50 incubated for 24 hrs by phalloidin fluorescent staining analysis. It is filed as toxicity, cell-based. The following applies: sk-ov-3, 24 h.
For data set [13], the system named is SK-OV-3. The experiment in a line: Cytotoxicity against human SK-OV-3 cells assessed as cell retraction at 40 uM incubated for 24 hrs by DAPI fluorescent staining analysis. The class given is toxicity, cell-based. As to conditions: sk-ov-3, 24 h.
In data set [14] the test system is SK-OV-3. The experiment in a line: Cytotoxicity against human SK-OV-3 cells assessed as change in cell morphology at IC50 incubated for 24 hrs by DAPI fluorescent staining analysis. The class given is toxicity, cell-based. As to conditions: sk-ov-3, 24 h.
Data set [15] relates to SK-OV-3. The experiment in a line: Cytotoxicity against human SK-OV-3 cells assessed as increase in LDH activity at IC50 incubated upto 96 hrs. The following applies: sk-ov-3, 96 h. It is filed as toxicity, cell-based.
Data set [16] has as its system SK-OV-3. The experiment in a line: Cytotoxicity against human SK-OV-3 cells assessed as change in cell cytoskeleton at IC50 incubated for 24 hrs by phalloidin fluorescent staining analysis. It is filed as toxicity, cell-based. The following applies: sk-ov-3, 24 h.
The subject of data set [17] is SK-OV-3. The experiment in a line: Cytotoxicity against human SK-OV-3 cells assessed as change in cell cytoskeleton at 28 uM incubated for 24 hrs by phalloidin fluorescent staining analysis. It is filed as toxicity, cell-based. As to conditions: sk-ov-3, 24 h.
Data set [18] has as its system SK-OV-3. Kind of data set: Cytotoxicity against human SK-OV-3 cells assessed as increase in LDH activity at 28 uM incubated upto 96 hrs. The class given is toxicity, cell-based. As to conditions: sk-ov-3, 96 h.
For data set [19], the system named is SK-OV-3. The experiment in a line: Cytotoxicity against human SK-OV-3 cells assessed as cell retraction at 28 uM incubated for 24 hrs by DAPI fluorescent staining analysis. It is filed as toxicity, cell-based. As to conditions: sk-ov-3, 24 h.
The subject of data set [20] is SK-OV-3. The experiment in a line: Cytotoxicity against human SK-OV-3 cells assessed as change in fibronectin matrix organization at 28 uM incubated for 24 hrs by phalloidin fluorescent staining analysis. It is filed as toxicity, cell-based. As to conditions: sk-ov-3, 24 h.

SMILES strings stand for the structures. Where a name gives a salt, the structure may show the parent alone. Numbered stars: 1 amine (or outer) side, 2 acyl side, 3 side chain; on linkers, the order of the positions; unused ones are H or OH. Square brackets hold non-standard residues; d marks the D form. Peptide text beside a SMILES is read from it. * marks the point of attachment. X2 = C[C@@](N[*:1])(C(=O)[*:2])C(F)(F)F; X1 = C[C@](N[*:1])(C(=O)[*:2])C(F)(F)F; Sta = CC(C)C[C@H](N)[C@@H](O)CC(=O)O; Cbz = O=C(OCc1ccccc1)*; Tfa = O=C(C(F)(F)F)*

Cathepsin D, sequence (P07339 65-162 limits assumed): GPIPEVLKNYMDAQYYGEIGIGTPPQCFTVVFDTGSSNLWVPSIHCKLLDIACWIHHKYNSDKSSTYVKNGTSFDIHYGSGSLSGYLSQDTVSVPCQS
Cathepsin D, sequence (P07339 169-412 limits assumed): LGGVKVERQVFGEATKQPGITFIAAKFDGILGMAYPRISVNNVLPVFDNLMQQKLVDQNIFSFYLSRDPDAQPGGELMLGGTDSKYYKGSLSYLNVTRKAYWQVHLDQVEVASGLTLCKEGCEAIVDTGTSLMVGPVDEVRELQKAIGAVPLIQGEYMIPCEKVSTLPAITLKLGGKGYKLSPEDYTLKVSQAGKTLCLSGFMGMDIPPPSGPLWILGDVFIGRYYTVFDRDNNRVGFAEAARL

Turning to `CC(C)CC(=O)N[C@@H](CCSC(F)(F)F)C(=O)N[C@H](C(=O)N[C@@H](CC(C)C)[C@@H](O)CC(=O)N[C@@H](C)C(=O)N[C@@H](CC(C)C)[C@@H](O)CC(=O)O)C(C)C`, the logP – broadly, a log measure of how a compound divides between an organic and an aqueous phase – in data set [1] is 3.33. Besides, the Activity entry in the data set on SK-OV-3 [2] and in the data set with BJ [3] was “Non-Toxic” throughout. Also, the CHI in data set [4] turned out to be 46.95. Half-maximal inhibition in data set [5] (IC50) required 775 nM.
Turning to `CC(C)C[C@H](NC(=O)[C@H](C)NC(=O)C[C@H](O)[C@H](CC(C)C)NC(=O)[C@@H](NC(=O)[C@@H](NC(=O)C(F)(F)F)C(C)C)C(C)C)[C@@H](O)CC(=O)O` (Tfa-VV[Sta]A[Sta]-OH), in data set [1], the logP came to 2.44. Also, in data set [4], the CHI is recorded as 43.68. In addition, the 50% inhibitory concentration (IC50) (as a rule, the concentration that gives 50% inhibition) was more than 4000 nM in [5] and more than 2000 nM at Cathepsin D.
Consider `CC(C)CC(=O)N[C@H](CCSC(F)(F)F)C(=O)N[C@H](C(=O)N[C@@H](CC(C)C)[C@@H](O)CC(=O)N[C@@H](C)C(=O)N[C@@H](CC(C)C)[C@@H](O)CC(=O)O)C(C)C`, for which the logP in [1] was found to be 3.3. Moreover, the Activity entry with SK-OV-3 [2] is given as “Non-Toxic”; in the data set on BJ [6] it was “Non-Toxic”; with BJ [3], “Non-Toxic”; with SK-OV-3 [7] it was “Toxic”; in the data set on SK-OV-3 [8], “Toxic”; in the data set on SK-OV-3 [9] it was “Toxic”. Moreover, the Activity entry in the data set on SK-OV-3 [10] is recorded as “Toxic”; with SK-OV-3 [11], “Toxic”; in the data set with SK-OV-3 [12], “Toxic”; in the data set on SK-OV-3 [13], “Toxic”; in the data set with SK-OV-3 [14], “Toxic”; in the data set on SK-OV-3 [15], “Non-Toxic”. Moreover, the Activity result in the data set with SK-OV-3 [16] is reported as “Toxic”. Further, the CHI in data set [4] turned out to be 45.85. Further, in [5], the midpoint of inhibition, the IC50, lay at 31 nM.
Regarding `CC(C)CC(=O)N[C@H](C(=O)N[C@H](C(=O)N[C@@H](CC(C)C)[C@@H](O)CC(=O)N[C@@H](C)C(=O)N[C@@H](CC(C)C)[C@@H](O)CC(=O)O)C(C)C)C(C)C` [PEPSTATIN], the log partition coefficient (logP) in [1] amounted to 2.37. In addition, the CHI in [4] is 39.55. The IC50 in [5] was 50 nM.
Regarding `CC(C)CC(=O)N[C@@H](C(=O)N[C@H](C(=O)N[C@@H](CCSC(F)(F)F)[C@@H](O)CC(=O)N[C@@H](C)C(=O)N[C@@H](CC(C)C)[C@@H](O)CC(=O)O)C(C)C)C(C)C`, half-maximal inhibition in data set [5] (IC50) required 193 nM.
As to `CC(C)CC(=O)N[C@@H](C(=O)N[C@H](C(=O)N[C@@H](CC(C)C)[C@@H](O)CC(=O)N[C@@H](C)C(=O)N[C@@H](CC(C)C)[C@@H](O)CC(=O)O)C(C)C)C(C)C`, the Activity entry in the data set with SK-OV-3 [2] and in the data set on BJ [3] was “Non-Toxic” throughout. Further, the IC50 in data set [5] came out at 21 nM.
In data set [1], `CC(C)C[C@H](NC(=O)[C@H](C)NC(=O)C[C@H](O)[C@H](CC(C)C)NC(=O)[C@@H](NC(=O)[C@](C)(NC(=O)OCc1ccccc1)C(F)(F)F)C(C)C)[C@@H](O)CC(=O)O` (Cbz-[X1]V[Sta]A[Sta]-OH) had a logP of 3.36. Further, the Activity entry with SK-OV-3 [2] is “Non-Toxic”; with BJ [6], “Non-Toxic”; in the data set on BJ [3], “Non-Toxic”; in the data set with SK-OV-3 [8], “Toxic”; with SK-OV-3 [17] it was “Toxic”; in the data set on SK-OV-3 [11], “Toxic”. Further, the Activity entry with SK-OV-3 [18] is listed as “Toxic”; in the data set on SK-OV-3 [12] it was “Toxic”; in the data set on SK-OV-3 [19], “Toxic”; with SK-OV-3 [14], “Toxic”; in the data set with SK-OV-3 [15], “Non-Toxic”; in the data set with SK-OV-3 [20] it was “Toxic”. Also, the Activity result in the data set on SK-OV-3 [16] is “Toxic”. The same compound registered a CHI in data set [4] of 47.24. Besides, the IC50 in [5] was 48 nM.
The compound `CC(C)C[C@H](NC(=O)[C@H](C)NC(=O)C[C@H](O)[C@H](CC(C)C)NC(=O)[C@@H](NC(=O)[C@@](C)(NC(=O)OCc1ccccc1)C(F)(F)F)C(C)C)[C@@H](O)CC(=O)O` (Cbz-[X2]V[Sta]A[Sta]-OH) had a logP in data set [1] of 3.97. Further, the Activity result with SK-OV-3 [2] and in the data set on BJ [3] was “Non-Toxic” throughout. Moreover, the CHI in data set [4] amounted to 49.19. In data set [5], half-maximal inhibition (IC50) required 375 nM.
